Test results reported in patent US20100022402A1, “Methods and Compositions for the In Vitro High-Throughput Detection of Protein/Protein Interactions” (priority 2004, published 2010).
Where two headings read alike, the source gives them in different places.

How the values were obtained:
[1] = system: λD-CUE:λD-Ubiquitin association; assay: Titration of λD-CUE:λD-Ubiquitin phage association by free proteins (loss of double resistant multilysogen formation); type: binding; conditions: for titration of λD-CUE:λD-Ubiquitin by non-partner peptides: acidic or basic aptamers
Method: Lambda display phages are used to co-infect cells at an MOI of 0.04. In the presence of increasing concentrations of the wtUbiquitin (diamonds), wt CUE (squares) or mutant CUEM419D (triangles) protein is added to the phage pair, and positive λD-CUE:λD-Ubiquitin association is scored by the loss of double resistant multilysogen formation. The results are tabulated as the number of colonies counted, with the point representing the maximum number of lysogens for this given MOI.
(§1) Display phages are assayed for their ability to associate with other phages bearing a potential binding partner, with a non-binding partner and with a non-display D vector phage (i.e. λA2 and λA3). The production of double antibiotic resistant (Cml^r/Kan^r) multilysogen E. coli LE392 is used to mark positive fusion D display protein-protein interaction. First, the phages are combined to yield a chosen MOI (a typical initial range is 0.002-0.04), and allowed to associate for 5 minutes at room temperature (RT) prior to dilution with 220 uL of Salted Association Buffer (SAB; 20 mM Tris.HCLpH7.4, 10 mM CaCl2, 10 mM MgCl2 and 100 mM NaCl). After 10 minutes at room temperature, 1×10^8 of fresh log-phase E. coli LE392 recovered in [LB+0.4% maltose+10 mM CaCl2] is added. Phage-phage association, co-infection and antibiotic gene expression are allowed to proceed for 45 min-1 h at RT, followed by plating on agar supplemented with 10^ug/mL Cml+30^ug/mL Kan. Plates are incubated overnight at 32° C. for lysogen formation.

[2] = system: λD-Acid:λD-Base association; assay: Titration of λD-Acid:λD-Base phage association by free competitors (loss of double resistant multilysogen formation); type: binding; conditions: for IC50, inhibition of Acid/Base association: MOI of 0.0025, aptamer 0.001 μM to 5 μM, FIG. 6; for Kd: free synthetic peptide competing with aptamer interaction, read-out: apparent KD (concentration of free peptide that results in an IC50); for concentration found to inhibit the λD-Acid:λD-Base interaction: free amino acid; for cross-inhibition of λD-Acid:λD-Base: non-partner free proteins
Method: Lambda display phages are used to co-infect cells at an MOI of 0.0025. In the presence of increasing concentrations of the Acidic (triangles) or Basic (square) Aptamer (0.001 μM to 5 μM), titration of Acid/Base association is scored by the loss of double resistant multilysogen formation. The point representing the maximum number of lysogens for this given MOI.
as §1

monoubiquitin = monoubiquitin (Homo sapiens, UniProt P0CG47); conditions: cited from earlier work
CUE = target: T1, CUE (Saccharomyces cerevisiae, UniProt P54787); conditions: CUE binds itself via an alpha helix interface; read-out: Kd (dimerization); cited from earlier work
T1 construct: The CUE domain (50 amino acid residues), as characterized by the conserved MFP and LL motifs
T1 sequence (P54787 408-451 limits assumed): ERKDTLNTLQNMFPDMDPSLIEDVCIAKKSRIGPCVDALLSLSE

E. coli LE392 cells = assay: Protein association assay: lysogen formation after infection with vector or display phages; type: cell-based; conditions: single input phage, MOI 0.1
Method: as §1

**Q.** Which results are given for GEGEGEGE [Acidic Aptamer, [Gly-Glu]4]?
**A.** titration of λD-CUE:λD-Ubiquitin by non-partner peptides [1]: nor is λD-CUE:λD-Ubiquitin titrated; IC50, inhibition of Acid/Base association [2]: ~0.01 µM; Kd [2]: 0.01 µM

**Q.** With N[C@@H](CCC(=O)O)C(=O)O [Glutamic acid] as the compound, how does the “concentration found to inhibit the λD-Acid:λD-Base interaction” value [2] read?
**A.** 0.679 mM

**Q.** Which “concentration found to inhibit the λD-Acid:λD-Base interaction” value [2] does the source give for N=C(N)NCCC[C@H](N)C(=O)O [Arginine] here?
**A.** 4.6 mM

**Q.** For “wt CUE: free wild type CUE domain (50 amino acids) of Vsp9p (KKIEENERKDTLNTLQNMFPDMDPSLIEDVCIAKKSRIGPCVDALLSLSE)”, which Kd (monoubiquitin; CUE as a dimer (dimericCue:Ubiquitin), read-out: apparent KD, CUE binding Ubiquitin) is on record?
**A.** 1.2 µM

**Q.** And the Kd (monoubiquitin; CUE as a monomer, read-out: KD, CUE binding monoubiquitin)?
**A.** 20 µM

**Q.** What about the Kd ([1]; free protein, read-out: apparent KD, competition of λD-Cue:λD-Ubiquitin pair) of the same compound?
**A.** 0.002 µM

**Q.** What about the “cross-inhibition of λD-Acid:λD-Base” value [2] of the same compound?
**A.** no cross-inhibition

**Q.** What about the Kd (CUE) of the same compound?
**A.** 1000 µM

**Q.** Which “Number of Cml^r/Kan^r Cells” value (E. coli LE392 cells) does the source give for Ubiquitin here?
**A.** 0

**Q.** What about the “Number of Kan^r Cells” value (E. coli LE392 cells) of the same compound?
**A.** 3 × 10^6

**Q.** What does the source list for GRGRGRGR [Basic Aptamer, [Gly-Arg]4]?
**A.** titration of λD-CUE:λD-Ubiquitin by non-partner peptides [1]: nor is λD-CUE:λD-Ubiquitin titrated; IC50, inhibition of Acid/Base association [2]: ~0.01 µM; Kd [2]: 0.01 µM

**Q.** Which results are given for “CUEM419D: non-binding mutant CUE protein (KKIEENERKDTLNTLQNDFPDMDPSLIEDVCIAKKSRIGPCVDALLSLSE)”?
**A.** titration point of λD-CUE:λD-Ubiquitin association ([1]; MOI of 0.04, FIG. 7): no titration point; ability to challenge the λD-CUE:λD-Ubiquitin interaction ([1]; even at a concentration of 1 mM): unable to challenge; cross-inhibition of λD-Acid:λD-Base [2]: no cross-inhibition
